# Experimental data as given in US9458132B2, “Therapeutic compounds and compositions and their use as PKM2 modulators” (AGIOS PHARMACEUTICALS, INC., priority 2012, dated 2016).
# Assays:
# Assay type in all cases: biochemical
# PKR R510Q = PKR R510Q (Homo sapiens, UniProt P30613, R510Q); assay: PKR mutant assay, PKR R510Q AC50; conditions: mutant PKR R510Q enzyme
# Procedure: (§1) • PKR or PKR mutant enzyme solution was diluted in assay buffer. • 2 μL of test compound was added into wells first, and then 180 μL reaction mix was added. • Reactions mixture with test compound was assembled except for ADP, and plates were stored for 60 minutes at room temperature. • 20 uL ADP was added to start reaction at room temperature and reaction progress was measured as changes in absorbance at 340 nm wavelength at room temperature.
# Test Compound Preparation: • Test compound stock was made at 100x concentration in 100% DMSO (10 mM) • 1 to 3 dilutions were made for 11 points (i.e. 50 μl of first concentration added to 100 μl 100% DMSO to yield 3.33 mM, 50 μl of this added to 100 μl DMSO to yield 1.11 mM, and so forth) • 1 to 100 dilution into assay (2 μl in 200 μl) yielded starting concentration of 100 μM, decreasing 3 fold for 11 points • Assay Buffer: 100 mM KCl, 50 mM Tris 7.5, 5 mM MgCl2, 1 mM DTT, 0.03% BSA • Reaction Mixture: PKR mutant enzyme: 80-400 ng/well; ADP: 0.22-1.65 mM; PEP: 0.1-0.5 mM; NADH:180 uM; LDH: 0.5 units (Sigma#59023); DTT: 1 mM; BSA: 0.03%. […]
# PKR WT = PKR WT (Homo sapiens, UniProt P30613); assay: PKR WT enzymatic assay AC50; conditions: wild type PKR
# PKR WT, sequence (P30613 whole entry): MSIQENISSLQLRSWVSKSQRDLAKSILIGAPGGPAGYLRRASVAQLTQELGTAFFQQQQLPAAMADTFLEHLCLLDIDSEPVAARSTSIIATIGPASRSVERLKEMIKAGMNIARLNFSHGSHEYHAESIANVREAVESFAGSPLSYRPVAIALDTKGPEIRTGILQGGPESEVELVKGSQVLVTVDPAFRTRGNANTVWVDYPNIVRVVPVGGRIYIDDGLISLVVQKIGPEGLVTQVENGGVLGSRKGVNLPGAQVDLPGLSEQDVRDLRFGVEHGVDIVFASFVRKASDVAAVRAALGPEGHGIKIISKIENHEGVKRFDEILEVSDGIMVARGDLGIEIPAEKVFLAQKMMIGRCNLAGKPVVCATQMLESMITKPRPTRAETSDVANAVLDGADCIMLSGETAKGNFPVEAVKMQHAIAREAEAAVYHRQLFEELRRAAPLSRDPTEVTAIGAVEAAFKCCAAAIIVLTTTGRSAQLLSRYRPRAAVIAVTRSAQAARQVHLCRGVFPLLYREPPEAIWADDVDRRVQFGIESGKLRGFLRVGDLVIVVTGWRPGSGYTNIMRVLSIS
# Procedure: as §1
# (§2) Test Compound Preparation: • Test compound stock was made at 100x concentration in 100% DMSO (10 mM) • 1 to 3 dilutions were made for 11 points (i.e. 50 μl of first concentration added to 100 μl 100% DMSO to yield 3.33 mM, 50 μl of this added to 100 μl DMSO to yield 1.11 mM, and so forth) • 1 to 100 dilution into assay (2 μl in 200 μl) yielded starting concentration of 100 μM, decreasing 3 fold for 11 points • Assay Buffer: 100 mM KCl, 50 mM Tris 7.5, 5 mM MgCl2, 1 mM DTT, 0.03% BSA • Reaction Mixture: PKR mutant enzyme: 80-400 ng/well; ADP: 0.22-1.65 mM; PEP: 0.1-0.5 mM; NADH:180 uM; LDH: 0.5 units (Sigma#59023); DTT: 1 mM; BSA: 0.03%.
# (§3) A compound described herein was diluted with DMSO and tested at 1 μM concentration. The enzyme was diluted in 1× Buffer: (100 mM KCl, 50 mM Tris 7.5, 5 mM MgCl2, 1 mM DTT, 0.03% BSA). 2 μL of compound solution was first added into wells, and then 180 μL of enzyme solution was added. Assays were assembled except for ADP, and plates were stored for 60 minutes at RT. 20 μL ADP was added to start the assay and assay output was evaluated using OD340 at SpectraMax. The assay was run at room temperature. • Final concentration: PKR wt (100 ng/well), Tris pH 7.5 (50 mM), KCl (100 mM), MgCl2 (5 mM), ADP (0.48 mM), PEP (0.15 mM), NADH (180 μM), LDH (0.5 units, Sigma 59023), DTT (1 mM) and BSA (0.03%).
# PKR R532W = PKR R532W (Homo sapiens, UniProt P30613, R532W); assay: PKR mutant assay, PKR R532W AC50; conditions: mutant PKR R532W enzyme
# PKR R532W, sequence (P30613 whole entry R532W): as the sequence (P30613 whole entry) above, with R532W counted along it
# Procedure: as §1, §2
# as §3, with “R532W” for “wt”, “(0.36” for “(0.48”, “(0.1” for “(0.15”
# PKR R510Q, sequence (P30613 whole entry R510Q): as the sequence (P30613 whole entry) above, with R510Q counted along it
SMILES,AC50 (PKR R510Q),AC50 (PKR WT),AC50 (PKR R532W)
"O=C(c1ccc(NS(=O)(=O)c2cccc3cccnc23)cc1)N1CC(O)(c2ccccc2F)C1 [Compound 3, N-(4-(3-(2-fluorophenyl)-3-hydroxyazetidine-1-carbonyl)phenyl)quinoline-8-sulfonamide]",1010 to 10000 nM,101 to 1000 nM,101 to 1000 nM
"O=C(c1ccc(NS(=O)(=O)c2cccc3cccnc23)cc1)N1CC(O)(c2ccccc2C(F)(F)F)C1 [Compound 6, N-(4-(3-hydroxy-3-(2-(trifluoromethyl)phenyl)azetidine-1-carbonyl)phenyl)quinoline-8-sulfonamide]",101 to 1000 nM,101 to 1000 nM,101 to 1000 nM
"O=C(c1ccc(NS(=O)(=O)c2cccc3cccnc23)cc1)N1CC(O)(c2ccc(F)cc2)C1 [Compound 14, N-(4-(3-(4-fluorophenyl)-3-hydroxyazetidine-1-carbonyl)phenyl)quinoline-8-sulfonamide]",1010 to 10000 nM,101 to 1000 nM,101 to 1000 nM
"O=C(c1ccc(NS(=O)(=O)c2cccc3cccnc23)cc1)N1CC(O)(c2cccnc2F)C1 [Compound 18, N-(4-(3-(2-fluoropyridin-3-yl)-3-hydroxyazetidine-1-carbonyl)phenyl)quinoline-8-sulfonamide]",1010 to 10000 nM,101 to 1000 nM,101 to 1000 nM
"COc1cccnc1C1(O)CN(C(=O)c2ccc(NS(=O)(=O)c3cccc4cccnc34)cc2)C1 [Compound 21, N-(4-(3-hydroxy-3-(3-methoxypyridin-2-yl)azetidine-1-carbonyl)phenyl)quinoline-8-sulfonamide]",1010 to 10000 nM,1010 to 10000 nM,
"O=C(c1ccc(NS(=O)(=O)c2cccc3cccnc23)cc1)N1CC(O)(c2ncccc2F)C1 [Compound 22, N-(4-(3-(3-fluoropyridin-2-yl)-3-hydroxyazetidine-1-carbonyl)phenyl)quinoline-8-sulfonamide]",1010 to 10000 nM,101 to 1000 nM,101 to 1000 nM
"O=C(c1ccc(NS(=O)(=O)c2cccc3cccnc23)cc1)N1CC(O)(c2ncccc2Cl)C1 [Compound 23, N-(4-(3-(3-chloropyridin-2-yl)-3-hydroxyazetidine-1-carbonyl)phenyl)quinoline-8-sulfonamide]",> 10000 nM,1010 to 10000 nM,
"O=C(c1ccc(NS(=O)(=O)c2cccc3cccnc23)cc1)N1CC(O)(c2ncccc2C(F)(F)F)C1 [Compound 24, N-(4-(3-hydroxy-3-(3-(trifluoromethyl)pyridin-2-yl)azetidine-1-carbonyl)phenyl)quinoline-8-sulfonamide]",1010 to 10000 nM,101 to 1000 nM,
"O=C(c1ccc(NS(=O)(=O)c2cccc3cccnc23)cc1)N1CC(O)(c2ncccc2OC(F)F)C1 [Compound 25, N-(4-(3-(3-(difluoromethoxy)pyridin-2-yl)-3-hydroxyazetidine-1-carbonyl)phenyl)quinoline-8-sulfonamide]",1010 to 10000 nM,101 to 1000 nM,
"CC(C)(C)C1(O)CN(C(=O)c2ccc(NS(=O)(=O)c3cccc4cccnc34)cc2)C1 [Compound 31, N-(4-(3-(tert-butyl)-3-hydroxyazetidine-1-carbonyl)phenyl)quinoline-8-sulfonamide]",> 10000 nM,1010 to 10000 nM,1010 to 10000 nM
"CC(C)C1(O)CN(C(=O)c2ccc(NS(=O)(=O)c3cccc4cccnc34)cc2)C1 [Compound 32, N-(4-(3-hydroxy-3-isopropylazetidine-1-carbonyl)phenyl)quinoline-8-sulfonamide]",> 10000 nM,1010 to 10000 nM,1010 to 10000 nM
"O=C(c1ccc(NS(=O)(=O)c2cccc3cccnc23)cc1)N1CC(O)(C2CC2)C1 [Compound 33, N-(4-(3-cyclopropyl-3-hydroxyazetidine-1-carbonyl)phenyl)quinoline-8-sulfonamide]",> 10000 nM,1010 to 10000 nM,1010 to 10000 nM
"CCC1(O)CN(C(=O)c2ccc(NS(=O)(=O)c3cccc4cccnc34)cc2)C1 [Compound 34, N-(4-(3-ethyl-3-hydroxyazetidine-1-carbonyl)phenyl)quinoline-8-sulfonamide]",> 10000 nM,1010 to 10000 nM,1010 to 10000 nM
"CC(C)CC1(O)CN(C(=O)c2ccc(NS(=O)(=O)c3cccc4cccnc34)cc2)C1 [Compound 35, N-(4-(3-hydroxy-3-isobutylazetidine-1-carbonyl)phenyl)quinoline-8-sulfonamide]",1010 to 10000 nM,101 to 1000 nM,101 to 1000 nM
"CCCC1(O)CN(C(=O)c2ccc(NS(=O)(=O)c3cccc4cccnc34)cc2)C1 [Compound 36, N-(4-(3-hydroxy-3-propylazetidine-1-carbonyl)phenyl)quinoline-8-sulfonamide]",> 10000 nM,101 to 1000 nM,1010 to 10000 nM
"O=C(c1ccc(NS(=O)(=O)c2cccc3cccnc23)cc1)N1CC(O)(CC2CC2)C1 [Compound 37, N-(4-(3-(cyclopropylmethyl)-3-hydroxyazetidine-1-carbonyl)phenyl)quinoline-8-sulfonamide]",> 10000 nM,101 to 1000 nM,101 to 1000 nM
"O=C(c1ccc(NS(=O)(=O)c2cccc3cccnc23)cc1)N1CC(O)(CCO)C1 [Compound 38, N-(4-(3-hydroxy-3-(2-hydroxyethyl)azetidine-1-carbonyl)phenyl)quinoline-8-sulfonamide]",> 10000 nM,1010 to 10000 nM,> 10000 nM
"CC(O)C1(O)CN(C(=O)c2ccc(NS(=O)(=O)c3cccc4cccnc34)cc2)C1 (stereo not shown) [Compound 39, N-(4-(3-hydroxy-3-(1-hydroxyethyl)azetidine-1-carbonyl)phenyl)quinoline-8-sulfonamide]",> 10000 nM,> 10000 nM,> 10000 nM
"O=C(c1ccc(NS(=O)(=O)c2cccc3cccnc23)cc1)N1CC(O)(CCCO)C1 [Compound 40, N-(4-(3-hydroxy-3-(3-hydroxypropyl)azetidine-1-carbonyl)phenyl)quinoline-8-sulfonamide]",> 10000 nM,1010 to 10000 nM,1010 to 10000 nM
"CC(O)CC1(O)CN(C(=O)c2ccc(NS(=O)(=O)c3cccc4cccnc34)cc2)C1 (stereo not shown) [Compound 41, N-(4-(3-hydroxy-3-(2-hydroxypropyl)azetidine-1-carbonyl)phenyl)quinoline-8-sulfonamide]",> 10000 nM,1010 to 10000 nM,1010 to 10000 nM
"O=C(c1ccc(NS(=O)(=O)c2cccc3cnccc23)cc1)N1CC(O)(Cc2ccccc2)C1 [Compound 48, N-(4-(3-benzyl-3-hydroxyazetidine-1-carbonyl)phenyl)isoquinoline-5-sulfonamide]",,> 10000 nM,> 10000 nM
"O=C(c1ccc(NS(=O)(=O)c2ccc(C(F)(F)F)cc2)cc1)N1CC(O)(Cc2ccccc2)C1 [Compound 50, N-(4-(3-benzyl-3-hydroxyazetidine-1-carbonyl)phenyl)-4-(trifluoromethyl)benzenesulfonamide]",,,> 10000 nM
Cc1cccnc1C1(O)CN(C(=O)c2ccc(NS(=O)(=O)c3cccc4cccnc34)cc2)C1 [Compound 59],> 10000 nM,,
O=C(c1ccc(NS(=O)(=O)c2ccc(OC(F)(F)F)cc2)cc1)N1CC(O)(Cc2ccccc2)C1 [Compound 65],,> 10000 nM,> 10000 nM
CN1C(=O)Cc2cc(S(=O)(=O)Nc3ccc(C(=O)N4CC(O)(Cc5ccccc5)C4)cc3)ccc21 [Compound 66],,> 10000 nM,> 10000 nM
